Test results as given in publication PMC12785803, “Novel ACE-Inhibitory Peptides from Royal Jelly Proteins: Comprehensive Screening, Mechanistic Insights, and Endothelial Protection” (Foods, 2025).
Where two headings read alike, the source gives them in different places.

Experiments:
EA.hy926 cells [1] = assay: SOD activity in H2O2-damaged cells; assay type: cell-based; details: 500 μmol/L H2O2 alone; control 126.15 ± 9.22
Procedure: (§1) The activities of SOD and GSH-Px were assessed as follows. EA.hy926 cells were seeded in 6-well plates at 4 × 10^5 cells per well and cultured overnight. After attachment, the cells were serum-starved in high-glucose DMEM containing 1% FBS for 12 h, and then treated for 24 h with peptide solutions at the indicated concentrations or with captopril. […] After treatment, the cells were washed with ice-cold PBS, lysed on ice, and centrifuged to collect the supernatants. SOD and GSH-Px activities were measured spectrophotometrically at 550 nm and 412 nm, respectively, using a microplate reader. Enzyme activities were calculated, normalized to total protein content, and expressed as U/mg protein.

EA.hy926 cells [2] = assay: GSH-Px activity in H2O2-damaged cells; assay type: cell-based; details: 500 μmol/L H2O2 alone; control 165.92 ± 5.21
Procedure: as §1

EA.hy926 cells [3] = assay: ET-1 level in Ang II-stimulated cells (ELISA); assay type: cell-based; details: Ang II 1 μmol/L alone; control 13.82 ± 0.69
Procedure: (§2) To evaluate the effect of the peptide on endothelial function, NO and ET-1 levels were measured in this study. Briefly, EA.hy926 cells were seeded in 6-well plates at a density of 4 × 10^5 cells/well and allowed to adhere overnight. After removing the medium, cells were incubated with 1 μmol/L Ang II for 12 h to induce endothelial dysfunction. Subsequently, the peptide solutions at different concentrations (0.1, 0.2, and 0.4 mg/mL) or the captopril solutions were added, and the cells were incubated for an additional 24 h. For the blank control group, the cells received no treatment. After incubation, the culture supernatants were collected and centrifuged to remove debris. Both NO and ET-1 contents in the supernatants were quantified using commercial kits according to the manufacturer’s protocols. NO content was determined using the Griess reaction (OD = 550 nm), and ET-1 levels were measured via enzyme-linked immunosorbent assay (ELISA) (OD = 450 nm). Absorbance values were recorded at the corresponding wavelengths using a microplate reader (Spark 10M, Tecan, Männedorf, Switzerland).

EA.hy926 cells [4] = assay: Wound healing assay (Ang II-induced migration); assay type: cell-based; details: Ang II 1 μmol/L alone
Procedure: The effect of peptides on endothelial cell migration was evaluated using a wound healing assay. Briefly, EA.hy926 cells were seeded into 6-well plates and cultured at 37 °C in a humidified atmosphere containing 5% CO2. When the cells reached full confluence, they were treated with 1 μmol/L Ang II for 12 h to induce endothelial dysfunction. Subsequently, a straight scratch was created across the cell monolayer using a sterile 200 μL pipette tip. Detached cells were gently removed by rinsing with PBS, leaving a clear cell-free wound area. To minimize proliferation interference, cells were then incubated in high-glucose DMEM containing 1% FBS, supplemented with different concentrations of the peptides or captopril. Images of the same wound area were captured at 0 h, 6 h, and 24 h using a fluorescence microscope (Axio Observer, Zeiss, Jena, Germany), and the wound area was quantified using ImageJ software (version 1.54g).

EA.hy926 cells [5] = assay: NO level in Ang II-stimulated cells (Griess); assay type: cell-based; details: Ang II 1 μmol/L alone; control 109.8 ± 3.93
Procedure: as §2

ACE [6] = system: ACE; design: method as in 4 sources, ref Han et al. [33] ||| ref 45 = [45]; PMID 35323475; doi:10.3390/md20030176; 45. Zheng S.-L. Luo Q.-B. Suo S.-K. Zhao Y.-Q. Chi C.-F. Wang B. Preparation, Identification, Molecular Docking Study and Protective Function on HUVECs of Novel ACE Inhibitory Peptides from Protein Hy ||| ref 36 = [36]; PMID 37888451; doi:10.3390/md21100516; 36. Hu Y.-D. Xi Q.-H. Kong J. Zhao Y.-Q. Chi C.-F. Wang B. Angiotensin-I-Converting Enzyme (ACE)-Inhibitory Peptides from the Collagens of Monkfish ( Lophius litulon ) Swim Bladders: Isolation, Charac ||| ref 46 = [46]; PMID 37944395; doi:10.1016/j.foodchem.2023.137921; 46. Du T. Xu Y. Xu X. Xiong S. Zhang L. Dong B. Huang J. Huang T. Xiao M. Xiong T. ACE Inhibitory Peptides from Enzymatic Hydrolysate of Fermented Black Sesame Seed: Random Forest-Based Optimization; details: cited from earlier work
Source text: These comparisons support the interaction profile observed for PY ...

ACE [7] = details: cited from earlier work
Source text: As compared to traditional experiment-based screening approaches for ACE-inhibitory peptides, which are time-consuming and labor-intensive, an in silico strategy that integrates peptidomic analysis with virtual screening has emerged as a more efficient and cost-effective approach for identifying ACE-inhibitory peptides from food resources. For example, in a previous study by our group, a novel ACE-inhibitory peptide, MMDF, was identified from the simulated digest of oyster proteins using a virtual screening pipeline that incorporated bioactivity prediction, physicochemical proper ... || In recent years, the hydrolysates of royal jelly proteins (RJPs) have gained increasing attention due to their broad spectrum of biological activities, including antioxidant, antibacterial, anti-aging, and antihypertensive properties, which are largely attributed to their favorable amino acid composition and sequence characteristics.

[8] = target: T1, Angiotensin-converting enzyme (ACE) (Oryctolagus cuniculus, UniProt P12822); assay: In vitro ACE-inhibitory activity (HHL substrate, HPLC of hippuric acid); assay type: biochemical; details: tested at 0.5 mg/mL, p < 0.05
T1 sequence (P12822 34-1310): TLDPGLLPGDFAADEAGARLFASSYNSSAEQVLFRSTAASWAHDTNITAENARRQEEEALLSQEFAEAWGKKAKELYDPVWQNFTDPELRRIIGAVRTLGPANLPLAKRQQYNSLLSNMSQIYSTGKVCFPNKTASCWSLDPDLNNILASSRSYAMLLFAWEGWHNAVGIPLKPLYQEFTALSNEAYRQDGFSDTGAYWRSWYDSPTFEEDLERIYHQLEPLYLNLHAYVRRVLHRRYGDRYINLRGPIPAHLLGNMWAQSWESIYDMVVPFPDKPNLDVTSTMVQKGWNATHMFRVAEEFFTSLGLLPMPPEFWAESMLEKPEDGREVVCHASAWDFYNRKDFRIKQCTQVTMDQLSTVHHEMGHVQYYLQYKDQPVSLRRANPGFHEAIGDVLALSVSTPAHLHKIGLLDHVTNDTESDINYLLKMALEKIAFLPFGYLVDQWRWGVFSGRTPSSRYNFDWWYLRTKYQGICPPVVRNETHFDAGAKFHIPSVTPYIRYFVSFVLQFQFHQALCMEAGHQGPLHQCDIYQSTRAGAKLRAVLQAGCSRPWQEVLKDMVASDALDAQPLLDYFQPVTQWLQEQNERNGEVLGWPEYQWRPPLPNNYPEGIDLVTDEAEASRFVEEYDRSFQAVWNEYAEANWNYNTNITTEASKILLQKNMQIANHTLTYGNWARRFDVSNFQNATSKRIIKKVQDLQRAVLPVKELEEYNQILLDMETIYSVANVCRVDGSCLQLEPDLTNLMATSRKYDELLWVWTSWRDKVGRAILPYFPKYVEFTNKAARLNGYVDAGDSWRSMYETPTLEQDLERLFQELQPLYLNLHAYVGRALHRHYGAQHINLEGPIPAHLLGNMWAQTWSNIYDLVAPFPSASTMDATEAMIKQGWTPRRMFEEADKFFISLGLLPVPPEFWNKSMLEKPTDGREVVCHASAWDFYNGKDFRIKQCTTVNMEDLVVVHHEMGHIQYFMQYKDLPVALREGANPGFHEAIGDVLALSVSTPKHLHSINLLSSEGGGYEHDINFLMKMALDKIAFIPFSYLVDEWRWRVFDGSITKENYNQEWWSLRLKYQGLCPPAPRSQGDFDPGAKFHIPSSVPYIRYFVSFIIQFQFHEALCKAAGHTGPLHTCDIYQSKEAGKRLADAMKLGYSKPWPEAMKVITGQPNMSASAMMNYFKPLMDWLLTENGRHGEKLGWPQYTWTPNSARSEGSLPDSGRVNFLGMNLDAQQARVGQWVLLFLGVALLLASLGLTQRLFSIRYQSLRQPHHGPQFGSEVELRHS
Procedure: The ACE-inhibitory activity of the peptides was measured according to a previously reported method. Briefly, 50 μL of the peptide solution, prepared in borate buffer (pH 8.3) containing 0.3 mol/L NaCl, was mixed with 100 μL of HHL (5.82 mmol/L) prepared in the same buffer. After incubation at 37 °C for 5 min, the reaction was initiated by adding 15 μL of ACE solution (0.1 U/mL), also prepared in the borate buffer described above. The mixture was then incubated at 37 °C for 30 min and terminated by adding 150 μL of 1 mol/L HCl. For the blank control, the same procedure was performed using 50 μL of the borate buffer instead of the peptide solution.
The released hippuric acid (HA) was quantified using an Elite P3200 high-performance liquid chromatography (HPLC) system (Dalian Elite Analytical Instruments Co., Ltd., Dalian, China) equipped with a C18 reversed-phase column (Waters, Milford, MA, USA; 150 mm × 4.6 mm, 5 μm) at a detection wavelength of 228 nm. The mobile phase consisted of solvent A (water containing 0.05% trifluoroacetic acid) and solvent B (acetonitrile) in a ratio of 75:25 (v/v). […]
The ACE inhibition rate (%) was calculated using the following equation:(1) ACE Inhibitory rate%=Ablank−Asample/Ablank×100 where Ablank is the peak area of HA in the blank control test, and Asample is the peak area of HA in the sample test. […]

ACE [9] = system: ACE; design: method as in 3 sources, ref 40 = [40]; PMID 38384691; doi:10.1016/j.fochx.2024.101211; 40. Wei G. Wang T. Li Y. He R. Huang A. Wang X. Identification, Structural Characterization, and Molecular Dynamic Simulation of ACE Inhibitory Peptides in Whey Hydrolysates from Chinese Rushan Cheese ||| ref 41 = [41]; PMID 39250996; doi:10.1016/j.ijbiomac.2024.135469; 41. Wang S. Zhang L. Wang H. Liu J. Hu Y. Tu Z. Angiotensin Converting Enzyme (ACE) Inhibitory Peptide from the Tuna ( Thunnus thynnus ) Muscle: Screening, Interaction Mechanism and Stability Int. J. ||| ref 42 = [42]; PMID 37793525; doi:10.1016/j.ijbiomac.2023.127196; 42. Wang S. Zhang L. Wang H. Hu Z. Xie X. Chen H. Tu Z. Identification of Novel Angiotensin Converting Enzyme (ACE) Inhibitory Peptides from Pacific Saury: In Vivo Antihypertensive Effect and Transpor; details: cited from earlier work

OO [H2O2, hydrogen peroxide]
SOD activity (EA.hy926 cells [1]): 67.47 ± 9.93 U/mg prot
GSH-Px activity (EA.hy926 cells [2]): 119.49 ± 3.94 U/mg prot

Angiotensin II (DRVYIHPF; Angiotensin-2; UniProt P01019 25-32, looked up) [Ang II, used to induce endothelial dysfunction]
ET-1 content (EA.hy926 cells [3]): 15.65 ± 0.83 pg/mg prot
Migration rate (EA.hy926 cells [4]; 6 h, control 35.95 ± 1.08%): 42.44 ± 2.12%
Migration rate (EA.hy926 cells [4]; 24 h, control 79.33 ± 0.48%): 89.68 ± 1.47%
NO level (EA.hy926 cells [5]): 58.95 ± 4.31 μmol/g prot

FDGPY [identified from Lophius litulon]
Docking interactions with ACE (ACE [6]; monkfish swim bladder): interacted with Ala354 and Tyr523 via hydrogen bonding and hydrophobic interactions
IC50 (ACE [7]; from Lophius litulon): 1.57 mM

FDVDRW [RJP-derived peptide; synthesized]
ACE-inhibitory activity in vitro (comparison in words) [8]: PYPDWSFAK and RPYPDWSF exhibited significantly higher ACE-inhibitory activity in vitro than FDVDRW and QWHDKIF

FPPDVA
IC50 (ACE [7]; from tuna dark muscle hydrolysates): 0.0871 ± 0.00102 mM

ITAPHW [from fermented black sesame seed]
Docking interactions with ACE (ACE [6]; fermented black sesame seed): strong ACE inhibition due to direct Zn^2+ coordination

KWEKPF [from Chinese Rushan cheese by-products]
ACE inhibition mode (ACE [9]; from Chinese Rushan cheese by-products): mixed-type ACE inhibition

LEPWR [from Pacific saury]
ACE inhibition mode (ACE [9]; from Pacific saury): mixed-type ACE inhibition

LTGCP [from tuna (Thunnus thynnus) muscle]
ACE inhibition mode (ACE [9]; from tuna (Thunnus thynnus) muscle): mixed-type ACE inhibition

QWHDKIF [RJP-derived peptide; synthesized]
ACE-inhibitory activity in vitro (comparison in words) [8]: PYPDWSFAK and RPYPDWSF exhibited significantly higher ACE-inhibitory activity in vitro than FDVDRW and QWHDKIF

SEGPK [identified from Lophius litulon]
Docking interactions with ACE (ACE [6]; monkfish swim bladder): interacted with Ala354 and Tyr523 via hydrogen bonding and hydrophobic interactions
IC50 (ACE [7]; from Lophius litulon): 1.21 mM

SLPNYHPSPR [from fermented black sesame seed]
Docking interactions with ACE (ACE [6]; fermented black sesame seed): strong ACE inhibition due to direct Zn^2+ coordination

SPGPW [identified from Lophius litulon]
Docking interactions with ACE (ACE [6]; monkfish swim bladder): formed a hydrogen bond with the catalytic residue His387
IC50 (ACE [7]; from Lophius litulon): 1.31 mM

VDRYF [from skipjack tuna muscle]
Docking interactions with ACE (ACE [6]; skipjack tuna muscle): formed hydrogen bonds with Ala354 and Tyr523 within S1 pocket, respectively
